In article PMC13586308, “Cell type–selective targeting by heterobifunctional protein binders via in-cell enrichment” (Nature Communications, 2026):
Where two headings read alike, the source gives them in different places.

Columns and labels:
FKBP12 [1] = biological target: T1, FKBP12 (Homo sapiens, UniProt P62942); assay: competitive fluorescence polarization assay, binding to FKBP12; conditions: competitive FP assay
FKBP12 [2] = biological target: T1, FKBP12; assay: NanoBRET FKBP12 in intact HEK293 cells; type: cell-based
BRD4 = biological target: T2, BRD4 (Homo sapiens, UniProt O60885); assay: NanoBRET BRD4, transient BRD4-NanoLuc in HEK293T cells; type: cell-based; conditions: intact HEK293 cells
T2 construct: full-length BRD4 fused to NanoLuc at N terminus; expressed in transfected cells; host or cells: HEK293T
Protocol: The NanoBRET assay was performed as described previously[26],[39]. To study BRD4 engagement, we employed two models: cells stably expressing BRD4-NanoLuc and cells with transient BRD4-NanoLuc expression. For stable cell lines, the coding sequence of human BRD4 (Isoform B) was fused in-frame to NanoLuc luciferase under the control of the human ubiquitin C (UbC) promoter, with left and right homology arms targeting the AAVS1 locus in intron 1 of the PPP1R12C gene to facilitate genomic integration. PC3 prostate cancer cells were transfected with this construct and vectors expressing Cas9 and an sgRNA targeting the AAVS1 locus using Lipofectamine 3000 (Invitrogen). Successful integrands were selected with blasticidin. Expression of the fusion protein was confirmed by western blot. For transient experiments, full-length BRD4 fused to NanoLuc at N terminus, was cloned into an expression plasmid and transfected into HEK293T cells using FuGENE HD (Promega, E2312), with protein expression allowed for 20 h. Serially diluted inhibitors and BRD Tracer-02 (Promega, TracerDB ID: T000022) at the Tracer KD concentration (from TracerDB)[40] were dispensed into white 384-well plates (Greiner 781207) using an ECHO 550 acoustic dispenser (Labcyte). The cells were trypsinized, resuspended in Opti-MEM without phenol red (Life Technologies), and seeded at 2 × 10^5 cells/mL. After equilibration for 2 h at 37 °C/5% CO₂ following compound treatment, the NanoBRET® NanoGlo Substrate + Extracellular NanoLuc® Inhibitor (Promega, N2162) was added according to the manufacturer’s protocol, and filtered luminescence was measured on a PHERAstar plate reader (BMG Labtech) using a donor (450 nm BP) and acceptor (610 nm LP) filter pair. Competitive displacement data were analyzed using GraphPad Prism 9 with a normalized 3-parameter curve fit: Y = 100/(1 + 10^(X − log IC₅₀)). For BRET measurements after FKBP12 knockdown in stably expressing BRD4 Nano-Luc reporter cell line, 10 nL/per well of the FKBP12 PROTAC was pipetted to each well using Labcyte to achieve the final concentration of 200 nM and the plated cells were incubated over-night at 37 °C and 5% CO2. BRET measurements were performed as outlined above.

BRD4^BD1 = biological target: T3, BRD4^BD1 (Homo sapiens, UniProt O60885); assay: competitive fluorescence polarization assay, BRD4 BD1 -/+ presenter protein; type: binding; conditions: for α BRD4^BD1 (binding cooperativity factor): ratio of binding in absence or presence of FKBP12
T3 construct: to the isolated BD1 and BD2 domains of BRD2, BRD3 and BRD4

BRD4^BD2 = biological target: T4, BRD4^BD2 (Homo sapiens, UniProt O60885); assay: competitive fluorescence polarization assay, BRD4 BD2 -/+ presenter protein; type: binding; conditions: for α BRD4^BD2 (binding cooperativity factor): ratio of binding in absence or presence of FKBP12
T4 construct: to the isolated BD1 and BD2 domains of BRD2, BRD3 and BRD4

[3] = absence of FKBP12, 2 nM JQ1-FL tracer, read-out: Binding to BRD4^BD1 - FKBP12 Kd
[4] = presence of 15 µM FKBP12, read-out: Binding to BRD4^BD1 + FKBP12 Kd (converted)
[5] = absence of FKBP12, 2 nM JQ1-FL tracer, read-out: Binding to BRD4^BD2 - FKBP12 Kd
[6] = presence of 15 µM FKBP12, read-out: Binding to BRD4^BD2 + FKBP12 Kd (converted)

T1 sequence (P62942 whole entry): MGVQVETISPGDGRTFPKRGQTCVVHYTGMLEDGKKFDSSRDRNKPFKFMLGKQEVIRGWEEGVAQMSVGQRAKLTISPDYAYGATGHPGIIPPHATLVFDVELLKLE

SMILES | Kd (FKBP12 [1]) | IC50 (FKBP12 [2]) | IC50 (BRD4) | Kd (BRD4^BD1; [3]) | Kd (BRD4^BD1; [4]) | α BRD4^BD1 (binding cooperativity factor) (BRD4^BD1) | Kd (BRD4^BD2; [5]) | Kd (BRD4^BD2; [6]) | α BRD4^BD2 (binding cooperativity factor) (BRD4^BD2) | nanoBRET BRD4 IC50 (BRD4)
Cc1sc2c(c1C)C(c1ccc(Cl)cc1)=NC(CC(=O)N1CCC(CN3CCC(n4cc(C5CN(Cc6ccccn6)C(=O)C6CCCC5N6S(=O)(=O)c5cc(Cl)cc(Cl)c5)nn4)CC3)CC1)c1nnc(C)n1-2 (centres unmarked) [a7c] | 3.5 nM | 138 nM | 665 nM | 520 ± 80 nM | 180 ± 30 nM | 2.9 | 700 ± 100 nM | 900 ± 200 nM | 0.8 | 
Cc1sc2c(c1C)C(c1ccc(Cl)cc1)=NC(CC(=O)N1CCC(CN3CCC(n4cc(COCC5CN(Cc6ccccn6)C(=O)C6CCCC5N6S(=O)(=O)c5cc(Cl)cc(Cl)c5)nn4)CC3)CC1)c1nnc(C)n1-2 (centres unmarked) [a7d] | 2.3 nM | 209 nM | 1110 nM | 680 ± 70 nM | 310 ± 50 nM | 2.2 | 700 ± 100 nM | 660 ± 90 nM | 1 | 
Cc1sc2c(c1C)C(c1ccc(Cl)cc1)=NC(CC(=O)N1CCC(CN3CCC(Cn4cc(C5CN(Cc6ccccn6)C(=O)C6CCCC5N6S(=O)(=O)c5cc(Cl)cc(Cl)c5)nn4)CC3)CC1)c1nnc(C)n1-2 (centres unmarked) [a8c] | 2.1 nM | 178 nM | 541 nM | 170 ± 20 nM | 150 ± 20 nM | 1.1 | 190 ± 30 nM | 160 ± 30 nM | 1.2 | 
Cc1sc2c(c1C)C(c1ccc(Cl)cc1)=NC(CC(=O)N1CCC(CN3CCC(Cn4cc(COCC5CN(Cc6ccccn6)C(=O)C6CCCC5N6S(=O)(=O)c5cc(Cl)cc(Cl)c5)nn4)CC3)CC1)c1nnc(C)n1-2 (centres unmarked) [a8d] | 1.8 nM | 228 nM | 357 nM | 160 ± 30 nM | 84 ± 16 nM | 1.9 | 130 ± 30 nM | 120 ± 30 nM | 1 | 
Cc1sc2c(c1C)C(c1ccc(Cl)cc1)=NC(CC(=O)N1CCC(N3CCC(n4cc(C5CN(Cc6ccccn6)C(=O)C6CCCC5N6S(=O)(=O)c5cc(Cl)cc(Cl)c5)nn4)CC3)CC1)c1nnc(C)n1-2 (centres unmarked) [a9c] | 2.2 nM | 107 nM | 155 nM | 280 ± 40 nM | 180 ± 20 nM | 1.6 | 310 ± 40 nM | 650 ± 90 nM | 0.5 | 
Cc1sc2c(c1C)C(c1ccc(Cl)cc1)=NC(CC(=O)N1CCC(N3CCC(n4cc(COCC5CN(Cc6ccccn6)C(=O)C6CCCC5N6S(=O)(=O)c5cc(Cl)cc(Cl)c5)nn4)CC3)CC1)c1nnc(C)n1-2 (centres unmarked) [a9d] | 1.7 nM | 169 nM | 364 nM | 340 ± 40 nM | 140 ± 10 nM | 2.4 | 500 ± 90 nM | 450 ± 70 nM | 1.1 | 
Cc1sc2c(c1C)C(c1ccc(Cl)cc1)=NC(CC(=O)N1CCC(N3CCC(Cn4cc(C5CN(Cc6ccccn6)C(=O)C6CCCC5N6S(=O)(=O)c5cc(Cl)cc(Cl)c5)nn4)CC3)CC1)c1nnc(C)n1-2 (centres unmarked) [a10c] | 0.3 nM | 288 nM | 497 nM | 120 ± 30 nM | 900 ± 100 nM | 0.1 | 170 ± 30 nM |  |  | 
Cc1sc2c(c1C)C(c1ccc(Cl)cc1)=NC(CC(=O)N1CCC(N3CCC(Cn4cc(COCC5CN(Cc6ccccn6)C(=O)C6CCCC5N6S(=O)(=O)c5cc(Cl)cc(Cl)c5)nn4)CC3)CC1)c1nnc(C)n1-2 (centres unmarked) [a10d] | 1.6 nM | 241 nM |  | 140 ± 30 nM | 100 ± 30 nM | 1.4 | 170 ± 30 nM | 80 ± 20 nM | 2.1 | none
Cc1sc2c(c1C)C(c1ccc(Cl)cc1)=NC(CC(=O)N1CC(CN3CCC(n4cc(C5CN(Cc6ccccn6)C(=O)C6CCCC5N6S(=O)(=O)c5cc(Cl)cc(Cl)c5)nn4)CC3)C1)c1nnc(C)n1-2 (centres unmarked) [a11c] | 0.7 nM | 218 nM | 1230 nM |  | 190 ± 30 nM | 5.3 |  | 450 ± 70 nM | 4.7 | 
Cc1sc2c(c1C)C(c1ccc(Cl)cc1)=NC(CC(=O)N1CC(CN3CCC(n4cc(COCC5CN(Cc6ccccn6)C(=O)C6CCCC5N6S(=O)(=O)c5cc(Cl)cc(Cl)c5)nn4)CC3)C1)c1nnc(C)n1-2 (centres unmarked) [a11d] | 0.8 nM | 165 nM | 687 nM | 480 ± 70 nM | 40 ± 10 nM | 12 |  | 700 ± 100 nM | 1.8 | 
Cc1sc2c(c1C)C(c1ccc(Cl)cc1)=NC(CC(=O)N1CC(CN3CCC(Cn4cc(C5CN(Cc6ccccn6)C(=O)C6CCCC5N6S(=O)(=O)c5cc(Cl)cc(Cl)c5)nn4)CC3)C1)c1nnc(C)n1-2 (centres unmarked) [a12c] | 1.8 nM | 280 nM | 748 nM | 390 ± 50 nM | 230 ± 20 nM | 1.7 | 800 ± 100 nM | 700 ± 90 nM | 1.1 | 
Cc1sc2c(c1C)C(c1ccc(Cl)cc1)=NC(CC(=O)N1CC(CN3CCC(Cn4cc(COCC5CN(Cc6ccccn6)C(=O)C6CCCC5N6S(=O)(=O)c5cc(Cl)cc(Cl)c5)nn4)CC3)C1)c1nnc(C)n1-2 (centres unmarked) [a12d] | 2.3 nM | 406 nM | 514 nM | 250 ± 40 nM | 40 ± 10 nM | 6.3 |  | 590 ± 70 nM | 1.9 | 
Cc1sc2c(c1C)C(c1ccc(C#CCNC(=O)COCCn3cc(COCC4CN(Cc5ccccn5)C(=O)C5CCCC4N5S(=O)(=O)c4cc(Cl)cc(Cl)c4)nn3)cc1)=NC(CC(=O)OC(C)(C)C)c1nnc(C)n1-2 (centres unmarked) [b3d] | 1 nM | 15 nM | 266 nM | 68 ± 9 nM | 200 ± 30 nM | 0.3 | 110 ± 30 nM |  | 0.1 | 
